Laboratory results as given in patent US20060069132A1, “Azolecarboxamide herbicides” (priority 2004, published 2006).
Where two headings read alike, the source gives them in different places.

Tests used:
barnyardgrass = assay: Test B pre-/postemergence herbicide test; type: in vivo, Echinochloa crus-galli
Summary of the method: (§1)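 Flooded paddy rice and barnyardgrass were treated at the 2-leaf stage; upland plantings received compound either on sown seed or on 1- to 4-leaf seedlings. All were kept 13–15 days in a greenhouse and scored visually, 0–100, relative to untreated plants.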

Surinam grass = assay: Test B pre-/postemergence herbicide test; type: in vivo, Urochloa decumbens
Summary of the method: (§2)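 Greenhouse pot assay with simultaneous preemergence (treated seed) and postemergence (2–18 cm seedlings) applications of surfactant-containing, non-phytotoxic solvent formulations. Response scored visually 13–15 days later on a 0–100 scale, 100 meaning complete control.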

corn = assay: Test B pre-/postemergence herbicide test; type: in vivo, Zea mays
Summary of the method: as §2

large crabgrass = assay: Test B pre-/postemergence herbicide test; type: in vivo, Digitaria sanguinalis
Summary of the method: as §2

giant foxtail = assay: Test B pre-/postemergence herbicide test; type: in vivo, Setaria faberi
Summary of the method: as §2

lambsquarters = assay: Test B pre-/postemergence herbicide test; type: in vivo, Chenopodium album
Summary of the method: as §2

morningglory = assay: Test B pre-/postemergence herbicide test; type: in vivo, Ipomoea coccinea; conditions: for pest or weed control at 500 g/ha: 500 g ai/ha
Summary of the method: as §1

pigweed = assay: Test B pre-/postemergence herbicide test; type: in vivo, Amaranthus retroflexus
Summary of the method: as §2

velvetleaf = assay: Test B pre-/postemergence herbicide test; type: in vivo, Abutilon theophrasti
Summary of the method: as §2

blackgrass = assay: Test B postemergence herbicide test; type: in vivo, Alopecurus myosuroides; conditions: Postemergence, scale 0 (no effect) to 100 (complete control); for Plant response rating, Blackgrass: 500 g ai/ha, visual rating after 13 to 15 days
Summary of the method: (§3)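 After treating 2-leaf paddy plants or 2–18 cm postemergence plants (1 to 4 leaves) with formulated chemical, researchers kept them in a greenhouse for 13–15 days. Effects were judged visually versus controls: 0 indicates none, 100 total control.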

wheat = assay: Test B postemergence herbicide test; type: in vivo, Triticum aestivum; conditions: Postemergence, scale 0 (no effect) to 100 (complete control); for Plant response rating, Wheat: 500 g ai/ha, visual rating after 13 to 15 days
Summary of the method: as §3

wild oat = assay: Test B postemergence herbicide test; type: in vivo, Avena fatua; conditions: Postemergence, scale 0 (no effect) to 100 (complete control); for Plant response rating, Oat, Wild: 500 g ai/ha, visual rating after 13 to 15 days
Summary of the method: as §3

rice = assay: Test B flooded paddy test; type: in vivo, Oryza sativa; conditions: 1000 g ai/ha, visual rating, scale 0 to 100 (0 no effect, 100 complete control), 13 to 15 days
Summary of the method: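 Greenhouse test; postemergence application to plants at 1–4 leaves (2–18 cm); paddy species at 2 leaves; evaluated visually vs controls at 13–15 days; scale 0–100 (100 = complete control).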

[1] = test system: small flower umbrella sedge; assay: Test B flooded paddy test; type: in vivo, Cyperus difformis; conditions: 1000 g ai/ha, visual rating, scale 0 to 100 (0 no effect, 100 complete control), 13 to 15 days
Summary of the method: as §3

ducksalad = assay: Test B flooded paddy test; type: in vivo, Heteranthera limosa; conditions: 1000 g ai/ha, visual rating, scale 0 to 100 (0 no effect, 100 complete control), 13 to 15 days
Summary of the method: as §3

[2] = Postemergence, 125 g ai/ha, scale 0 (no effect) to 100 (complete control)
[3] = Postemergence, 500 g ai/ha, visual rating after 13 to 15 days, scale 0 (no effect) to 100 (complete control)
[4] = Preemergence, 500 g ai/ha, scale 0 to 100
[5] = preemergence, 125 g ai/ha, 0 to 100 scale, 0 is no effect, 100 is complete control

CCNC(=O)c1ccc(F)c(NC(=O)c2cc(C(C)(C)C)nn2CC)c1 [Compound 2, 3-(1,1-dimethylethyl)-1-ethyl-N-[5-[(ethylamino)carbonyl]-2-fluorophenyl]-1H-pyrazole-5-carboxamide]
pest or weed control at 125 g/ha (barnyardgrass; Echinochloa crus-galli, post-emergence, Postemergence, 125 g ai/ha, scale 0 (no effect) to 100 (complete control), read-out: Barnyardgrass plant response rating): 30%
pest or weed control at 500 g/ha (barnyardgrass; Echinochloa crus-galli, post-emergence, Postemergence, 500 g ai/ha, visual rating after 13 to 15 days, scale 0 (no effect) to 100 (complete control), read-out: Plant response rating, Barnyardgrass): 70%
pest or weed control at 500 g/ha (barnyardgrass; Echinochloa crus-galli, pre-emergence, Preemergence, 500 g ai/ha, scale 0 to 100, read-out: Barnyardgrass plant response rating): 100%
pest or weed control at 125 g/ha (Surinam grass; Urochloa decumbens, post-emergence, Postemergence, 125 g ai/ha, scale 0 (no effect) to 100 (complete control), read-out: Surinam Grass plant response rating): 20%
pest or weed control at 500 g/ha (Surinam grass; Urochloa decumbens, post-emergence, Postemergence, 500 g ai/ha, visual rating after 13 to 15 days, scale 0 (no effect) to 100 (complete control), read-out: Plant response rating, Surinam Grass): 50%
pest or weed control at 500 g/ha (Surinam grass; Urochloa decumbens, pre-emergence, Preemergence, 500 g ai/ha, scale 0 to 100, read-out: Surinam Grass plant response rating): 100%
plant injury at 125 g/ha (corn; Zea mays, post-emergence, Postemergence, 125 g ai/ha, scale 0 (no effect) to 100 (complete control), read-out: Corn plant response rating): 20%
Corn plant response rating (crop injury, 0 = no effect, 100 = complete kill) at 500 g/ha (corn; Zea mays, post-emergence, Postemergence, 500 g ai/ha, visual rating after 13 to 15 days, scale 0 (no effect) to 100 (complete control)): 20%
plant injury at 500 g/ha (corn; Zea mays, pre-emergence, Preemergence, 500 g ai/ha, scale 0 to 100, read-out: Corn plant response rating): 80%
pest or weed control at 125 g/ha (large crabgrass; Digitaria sanguinalis, post-emergence, Postemergence, 125 g ai/ha, scale 0 (no effect) to 100 (complete control), read-out: Crabgrass, Large plant response rating): 20%
pest or weed control at 500 g/ha (large crabgrass; Digitaria sanguinalis, post-emergence, Postemergence, 500 g ai/ha, visual rating after 13 to 15 days, scale 0 (no effect) to 100 (complete control), read-out: Plant response rating, Crabgrass, Large): 30%
pest or weed control at 500 g/ha (large crabgrass; Digitaria sanguinalis, pre-emergence, Preemergence, 500 g ai/ha, scale 0 to 100, read-out: Crabgrass, Large plant response rating): 100%
pest or weed control at 125 g/ha (giant foxtail; Setaria faberi, post-emergence, 336 h, Postemergence, 125 g ai/ha, scale 0 (no effect) to 100 (complete control), read-out: Foxtail, Giant plant response rating): 30%
pest or weed control at 500 g/ha (giant foxtail; Setaria faberi, post-emergence, 336 h, Postemergence, 500 g ai/ha, visual rating after 13 to 15 days, scale 0 (no effect) to 100 (complete control), read-out: Plant response rating, Foxtail, Giant): 30%
pest or weed control at 500 g/ha (giant foxtail; Setaria faberi, pre-emergence, 336 h, Preemergence, 500 g ai/ha, scale 0 to 100, read-out: Foxtail, Giant plant response rating): 100%
pest or weed control at 125 g/ha (lambsquarters; Chenopodium album, post-emergence, 336 h, Postemergence, 125 g ai/ha, scale 0 (no effect) to 100 (complete control), read-out: Lambsquarters plant response rating): 80%
pest or weed control at 500 g/ha (lambsquarters; Chenopodium album, post-emergence, 336 h, Postemergence, 500 g ai/ha, visual rating after 13 to 15 days, scale 0 (no effect) to 100 (complete control), read-out: Plant response rating, Lambsquarters): 90%
pest or weed control at 500 g/ha (lambsquarters; Chenopodium album, pre-emergence, 336 h, Preemergence, 500 g ai/ha, scale 0 to 100, read-out: Lambsquarters plant response rating): 100%
pest or weed control at 125 g/ha (morningglory; Ipomoea, post-emergence, 336 h, Postemergence, 125 g ai/ha, scale 0 (no effect) to 100 (complete control), read-out: Morningglory plant response rating): 30%
pest or weed control at 500 g/ha (morningglory; Ipomoea, post-emergence, 336 h, Postemergence, visual rating after 13 to 15 days, scale 0 (no effect) to 100 (complete control), read-out: Plant response rating, Morningglory): 70%
pest or weed control at 500 g/ha (morningglory; Ipomoea, pre-emergence, 336 h, Preemergence, scale 0 to 100, read-out: Morningglory plant response rating): 90%
pest or weed control at 125 g/ha (pigweed; Amaranthus retroflexus, post-emergence, 336 h, Postemergence, 125 g ai/ha, scale 0 (no effect) to 100 (complete control), read-out: Pigweed plant response rating): 60%
pest or weed control at 500 g/ha (pigweed; Amaranthus retroflexus, post-emergence, 336 h, Postemergence, 500 g ai/ha, visual rating after 13 to 15 days, scale 0 (no effect) to 100 (complete control), read-out: Plant response rating, Pigweed): 70%
pest or weed control at 500 g/ha (pigweed; Amaranthus retroflexus, pre-emergence, 336 h, Preemergence, 500 g ai/ha, scale 0 to 100, read-out: Pigweed plant response rating): 100%
pest or weed control at 125 g/ha (velvetleaf; Abutilon theophrasti, post-emergence, 336 h, Postemergence, 125 g ai/ha, scale 0 (no effect) to 100 (complete control), read-out: Velvetleaf plant response rating): 20%
pest or weed control at 500 g/ha (velvetleaf; Abutilon theophrasti, post-emergence, 336 h, Postemergence, 500 g ai/ha, visual rating after 13 to 15 days, scale 0 (no effect) to 100 (complete control), read-out: Plant response rating, Velvetleaf): 50%
pest or weed control at 500 g/ha (velvetleaf; Abutilon theophrasti, pre-emergence, 336 h, Preemergence, 500 g ai/ha, scale 0 to 100, read-out: Velvetleaf plant response rating): 100%
pest or weed control at 125 g/ha (blackgrass; Alopecurus myosuroides, post-emergence, 336 h, 125 g ai/ha, read-out: Blackgrass plant response rating): 10%
Plant response rating, Blackgrass (blackgrass): 30
Plant response rating, Wheat (wheat): 20
plant injury at 125 g/ha (wheat; Triticum aestivum, post-emergence, 336 h, 125 g ai/ha, read-out: Wheat plant response rating): 20%
pest or weed control at 125 g/ha (wild oat; Avena fatua, post-emergence, 336 h, 125 g ai/ha, read-out: Oat, Wild plant response rating): 20%
Plant response rating, Oat, Wild (wild oat): 30
plant injury at 1000 g/ha (rice; Oryza sativa, 336 h, read-out: Rice plant response rating): 70%
pest or weed control at 1000 g/ha ([1]; Cyperus difformis, 336 h, read-out: Sedge, Umbrella plant response rating): 90%
pest or weed control at 1000 g/ha (ducksalad; Heteranthera limosa, 336 h, read-out: Ducksalad plant response rating): 90%

C=Cn1nc(C(C)(C)C)cc1C(=O)Nc1cccc(C(=O)NCC)c1 [Compound 33]
Barnyardgrass plant response rating (barnyardgrass; [2]): 20
Plant response rating, Barnyardgrass (barnyardgrass; [3]): 30
Barnyardgrass plant response rating (barnyardgrass; [4]): 90
Plant response rating, Surinam Grass (Surinam grass; [3]): 30
Surinam Grass plant response rating (Surinam grass; [4]): 80
Plant response rating, Surinam Grass (Surinam grass; [5]): 30
Corn plant response rating (corn; [4]): 30
Crabgrass, Large plant response rating (large crabgrass; [2]): 20
Plant response rating, Crabgrass, Large (large crabgrass; [3]): 30
Crabgrass, Large plant response rating (large crabgrass; [4]): 100
Foxtail, Giant plant response rating (giant foxtail; [2]): 30
Plant response rating, Foxtail, Giant (giant foxtail; [3]): 30
Foxtail, Giant plant response rating (giant foxtail; [4]): 100
Plant response rating, Foxtail, Giant (giant foxtail; [5]): 80
Lambsquarters plant response rating (lambsquarters; [2]): 90
Plant response rating, Lambsquarters (lambsquarters; [3]): 90
Lambsquarters plant response rating (lambsquarters; [4]): 100
Plant response rating, Lambsquarters (lambsquarters; [5]): 100
Plant response rating, Morningglory (morningglory; [5]): 10
Plant response rating, Pigweed (pigweed; [3]): 90
Pigweed plant response rating (pigweed; [4]): 100
Plant response rating, Pigweed (pigweed; [5]): 100
Plant response rating, Velvetleaf (velvetleaf; [3]): 60
Velvetleaf plant response rating (velvetleaf; [4]): 80
Plant response rating, Velvetleaf (velvetleaf; [5]): 40
Blackgrass plant response rating (blackgrass; 125 g ai/ha): 20
Plant response rating, Blackgrass (blackgrass): 20
Plant response rating, Wheat (wheat): 30
Oat, Wild plant response rating (wild oat; 125 g ai/ha): 10
Plant response rating, Oat, Wild (wild oat): 10
Rice plant response rating (rice): 60
Sedge, Umbrella plant response rating [1]: 90
Ducksalad plant response rating (ducksalad): 90
